SMILES strings stand for the structures.

In assay [1] the test system is CDK1 and CDK2 T-loop phosphorylation. In words: Western blotting of CDK1 and CDK2 T-loop phosphorylation in SCLC lines. Type of assay: cell-based, mouse, human. The following applies: representative panel of SCLC lines, 24 hours; 'as low as'. On the procedure: Cells in culture were collected by centrifuging at 1,500 rpm and then washed with ice-cold PBS twice to completely remove residual medium. RIPA lysis buffer (Thermo Fisher Scientific, Cat #89900) supplemented with Halt™ Protease and Phosphatase Inhibitor Cocktail (Thermo Fisher Scientific, Cat #78440) was added to cell pellets to extract protein. Protein concentrations in lysates were measured by Pierce™ BCA Protein Assay Kit (Thermo Fisher Scientific, Cat #23225) and followed by the addition of SDS loading buffer (6×) and heated at 95° C. for 5 min. Equal amount of protein samples was subjected to 4-20% gradient gel SDS-PAGE and transferred to a nitrocellulose membrane (Bio-Rad, Cat #1704271). The membrane was blocked in Odyssey® Blocking Buffer (LI-COR, Cat #927-50003) at room temperature for 1 hour and incubated with appropriate antibodies at 4° C. overnight (Key Resources Table). Antibodies were diluted in TBST (TBS with 0.1% Tween) with 20% LI-COR Odyssey Blocking Buffer. On the next day, the membrane was washed with TBST (TBS with 0.1% Tween) four times and incubated with appropriate secondary antibodies (LI-COR, anti-Rabbit, Cat #925-32213; anti-Mouse, Cat #925-68072) at room temperature for 1 hour. Membranes were imaged using the LI-COR Odyssey® Imaging System.
A general note: A western blot detects proteins with antibodies after separation by electrophoresis.

The subject of another assay is DMS79 cells. Briefly: BrdU analysis. Type of assay: cell-based, human. The settings on record: 100 nM, 24 and 48 hour. Here is the method: Cells were seeded in 6-well plates (0.5-1×10^6 cells/well) in media and treated with YKL-5-124 at indicated concentrations and time points. Prior to collection, cells were pulsed with […] BrdU (BD Biosciences, #559619) for 2-4 hr (depending on cell line doubling time) and collected by centrifugation. Hereafter cells were permeabilized, fixated and stained according to BrdU kit instruction (BD Biosciences, Cat #559619). Cells were gated for BrdU incorporation (FITC) and 7-aminoactinomycin D (7-AAD) to quantify cells in G1, S (BrdU positive) and G2/M.

The subject of the next assay is RPP631 cells. Briefly: EdU and MCM2 imaging by STORM. Type of assay: cell-based, mouse. The following applies: 100 nM, 48 and 72 hr. On the procedure:
RPP631 cells were incubated in the presence of 100 nM YKL-5-124 for 48-72 hr. EdU was pulsed during the last 30 minutes of YKL-5-124 treatment. Treated cells were pre-extracted using 0.5% Triton in CSK buffer (10 mM Hepes, 300 mM Sucrose, 100 mM NaCl, and 3 mM MgCl2, pH=7.6) for 10 minutes, and fixed with paraformaldehyde (4%) for 30 minutes. Cells were then rinsed 3 times with PBS and blocked (2% glycine, 2% BSA, 0.2% gelatin, and 50 mM NH4Cl in PBS) overnight at 4° C. for further staining. […]
STORM imaging was performed on a customized inverted microscope. […] Cell samples were sequentially illuminated with 639 and 750 laser lines and the emitted fluorescence was collected by the same objective with a 2× magnification tube lens (Diagnostic Instruments). The fluorescence was then filtered by single band filters (Semrock FF01-676/37 and FF02-809/81) switched in a filter wheel accordingly. […]
Each 2000-frame single-molecule image stack was submitted to a home-built software for precise single-molecule localization. […] The fitting accuracy was evaluated using Cramer-Rao Lower Bound (CRLB). Note that the patterned read-out noise of the sCMOS camera was calibrated before imaging. Such read-out noise for each pixel was approximated into a Gaussian distribution and convolved with the Poisson shot noise for MLE fitting. […] The number of fluorophores is proportional to the quantity of EdU and MCM2. […]

The next assay concerns OT-I CD8^+ T cells. Briefly: Ex vivo OT-I T cell assay. Type of assay: cell-based, mouse. On the procedure:
The spleen of OT-I mice was minced with a razor and mashed through a 40 µm strainer to form a single-cell suspension. Separated cells were then treated with RBC lysis buffer and a number of 5×10^5 cells were seeded in a 96-well U-bottom plate. For conditioned medium culture assay, RPP631 cells were treated with either DMSO or YKL-5-124 for 48 hr and drug was washed off after first 6-hour treatment. Subsequently, DMSO-conditioned medium or YKL-5-124-conditioned medium were collected and added to above single-cell suspension in a 96-well U-bottom plate in the presence of Ova257-264 peptide (10 μg/ml, GenScript, Cat #RP10611) for 4 days. Alternatively, DMSO or YKL-5-124 was added directly to single-cell suspension in the presence of Ova257-264 peptide for 4 days in the T cell assay medium (complete RPMI with HEPES, sodium pyruvate, MEM nonessential amino acids and 2-mercaptethonal). T cell activation markers CD69, TNFα. and IFNγ were analyzed by flow cytometry.

`C=CC(=O)Nc1ccc(C(=O)Nc2n[nH]c3c2CN(C(=O)N[C@H](CN(C)C)c2ccccc2)C3(C)C)cc1` [YKL-5-124]: the “concentrations robustly inhibiting CDK1 and CDK2 T-loop phosphorylation” value in assay [1] is not below 50 nM. For the same molecule, the “BrdU-incorporated S-phase cells” value with DMS79 cells is “significant decrease”. Also, in the assay with RPP631 cells, the “EdU content in each nucleus and in each focus” value is on record as “dramatic decrease”; the “MCM2 content in each nucleus and replication focus” value is on record as “significant decline”. For the same molecule, in the assay with OT-I CD8^+ T cells (OT-I T cells directly treated), the “CD8^+ T cell activity” value is reported as “No significant effect”. Besides, in the assay with OT-I CD8^+ T cells (YKL-5-124-conditioned medium of mouse SCLC cells vs DMSO-conditioned medium), the “percentage of CD69^+, TNFα^+ and IFNγ^+ CD8^+ T cells” value is reported as “significant increase”.

Source of the values: patent US20230114207A1, “THE COMBINATION OF CYCLIN DEPENDENT KINASE 7 INHIBITOR AND IMMUNOTHERAPY FOR TREATMENT OF CANCER” (Dana-Farber Cancer Institute, Inc., priority 2019, published 2023).
